“And” between values parts separate entries of the source, which are not always exact repeats. Identical values can stand only once.
System: 633275-114-R-J1-PDC complex spheroids, viability
Test: Anticancer human tumor 633275-114-R-J1-PDC patient-derived endometrial adenocarcinoma cell line growth inhibition [GQUAD]
Settings: for viability, T/C: stronger effect = lower value
From the text: DNA G-quadruplex Stabilizer Agents in Combinations in Complex Spheroids
A high-throughput screen of multi-cell type tumor spheroids was designed to identify active combinations of DNA G-quadruplex stabilizer agents and targeted small molecules. Complex spheroids include a stromal component modeled by human endothelial cells (HUVEC) and fibroblasts modeled by human mesenchymal stem cells (MSCs). The concentration ranges selected for each drug and investigational agent were based upon clinically achievable concentrations if the clinical Cmax of the agent was known.
Compounds. The drugs and investigational agents: pidnarulex (CX-5461; NSC782164), APTO-253 (NSC789042), BRACO-19 (NSC847499), peposertib (NSC802822), ceralasertib (NSC780249), elimusertib (NSC800525), camonsertib (NSC841442), AZD-1390 (NSC803789), olaparib (NSC753686), talazoparib (NSC767125), ART-558 (NSC835418), sotorasib (NSC818433), MRTX-1133 (NSC836407), SN-38 (NSC673596), topotecan (NSC609699), etoposide (NSC141540), doxorubicin (NSC123127), gemcitabine (NSC613327), 5-fluorouracil (NSC19893), paclitaxel (NSC125973), vemurafenib (NSC761431), panobinostat (NSC761190), R-306465 (JNJ-16241199; NSC773264), adavosertib (NSC754352), TP-3654 (NSC805149), carboplatin (NSC241240), KSQ-4279 (NSC840948), and staurosporine (NSC755774) were obtained from the National Cancer Institute (NCI) Developmental Therapeutics Program Chemical Repository (34). The FDA-approved anticancer drug set is available from the NCI Developmental Therapeutics Program. […] The stock solutions were prepared in dimethyl sulfoxide (DMSO, Sigma-Aldrich, St. Louis, MO, cat. D2650) at 800-fold the tested concentration and stored at -70 degrees C prior to their use. All drugs and investigational agents were tested over a range starting from a high concentration at or near the clinical Cmax and decreasing in half-log increments. If the clinical Cmax for an agent had not been determined, the highest concentration tested was 10 microM.
2.3 Cell Culture. All cells were maintained in an incubator at 37 degrees C and 5% CO2 with 95% humidity. The PDC lines were cultured according to standard operating procedures established by the NCI PDMR. All PDCs were thawed and cultured in Matrigel-coated flasks prepared with a working solution of 1X Ham's F-12 nutrient mix, without supplementation (Invitrogen, cat. 11765054), 100 U/mL penicillin-streptomycin (Invitrogen, cat. 15140122), and 2.5% Matrigel (Corning Inc., cat. 354248) for the first three passages. The 857933-349-R-J2-PDC line was cultured in 6C/Colon 1B media, which includes advanced DMEM/F-12 (Thermo Fisher Scientific, cat. 12634028), 10 mM HEPES (Thermo Fisher Scientific, cat. 15630080), 1X GlutaMAX supplement (Thermo Fisher Scientific, cat. 35050061), 0.1 mg/mL primocin (InvivoGen, cat. ant-pm-2), 10% defined fetal bovine serum, heat inactivated (HyClone Laboratories Inc., cat. SH30070.03HI), 50% L-WRN conditioned media (ATCC, cat. CRL-3276), 1.25 mM N-Acetyl-L-cysteine (Sigma-Aldrich, cat. A9165), 10 mM nicotinamide (Sigma-Aldrich, cat. N0636), 1X B-27 supplement (Thermo Fisher Scientific, cat. 17504044), 1X N-2 supplement (Thermo Fisher Scientific, cat. 17502048), 10 microM Y-27632 dihydrochloride (Tocris Bioscience, cat. 1254), and 50 ng/mL human EGF recombinant protein (Thermo Fisher Scientific, cat. PHG0311). The 485176-168-R4-J1-PDC line was cultured in Panc media, which includes all 6C/Colon 1B media components plus 100 ng/mL human FGF-10 (Thermo Fisher Scientific, cat. 100-26), 500 nM SB-431542 (Selleckchem, cat. S1067), and gastrin (Tocris, cat. 3006).
[…]

[1] = curve of first compound, second compound 0.0316 µM
[2] = curve of first compound, second compound 0.1 µM
[3] = curve of first compound, second compound 0.316 µM
[4] = curve of first compound, second compound 1 µM
[5] = curve of first compound, second compound 3.16 µM
[6] = curve of first compound, second compound 10 µM
[7] = second compound 0.0316 µM, first compound 0.0316 µM
[8] = second compound 0.0316 µM, first compound 0.1 µM
[9] = second compound 0.0316 µM, first compound 0.316 µM
[10] = second compound 0.0316 µM, first compound 1 µM
[11] = second compound 0.0316 µM, first compound 3.16 µM
[12] = second compound 0.0316 µM, first compound 10 µM
[13] = second compound 0.1 µM, first compound 0.0316 µM
[14] = second compound 0.1 µM, first compound 0.1 µM
[15] = second compound 0.1 µM, first compound 0.316 µM
[16] = second compound 0.1 µM, first compound 1 µM
[17] = second compound 0.1 µM, first compound 3.16 µM
[18] = second compound 0.1 µM, first compound 10 µM
[19] = second compound 0.316 µM, first compound 0.0316 µM
[20] = second compound 0.316 µM, first compound 0.1 µM
[21] = second compound 0.316 µM, first compound 0.316 µM
[22] = second compound 0.316 µM, first compound 1 µM
[23] = second compound 0.316 µM, first compound 3.16 µM
[24] = second compound 0.316 µM, first compound 10 µM
[25] = second compound 1 µM, first compound 0.0316 µM
[26] = second compound 1 µM, first compound 0.1 µM
[27] = second compound 1 µM, first compound 0.316 µM
[28] = second compound 1 µM, first compound 1 µM
[29] = second compound 1 µM, first compound 3.16 µM
[30] = second compound 1 µM, first compound 10 µM
[31] = second compound 3.16 µM, first compound 0.0316 µM
[32] = second compound 3.16 µM, first compound 0.1 µM
[33] = second compound 3.16 µM, first compound 0.316 µM
[34] = second compound 3.16 µM, first compound 1 µM
[35] = second compound 3.16 µM, first compound 3.16 µM
[36] = second compound 3.16 µM, first compound 10 µM
[37] = second compound 10 µM, first compound 0.0316 µM
[38] = second compound 10 µM, first compound 0.1 µM
[39] = second compound 10 µM, first compound 0.316 µM
[40] = second compound 10 µM, first compound 1 µM
[41] = second compound 10 µM, first compound 3.16 µM
[42] = second compound 10 µM, first compound 10 µM
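Further: spheroids exposed to the agents for seven days.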
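Wherever viability, T/C is given: percent of DMSO vehicle control viability which is 100%.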

## CC1COCCN1c1cc(-c2ccnn2C)c2ccnc(-c3ccn[nH]3)c2n1 (stereo unspecified) + Cc1cnc(CNC(=O)c2c(=O)c3ccc(N4CCCN(C)CC4)nc3n3c2sc2ccccc23)cn1
[1]
  IC50: < 0.0316 µM
[2]
  IC50: < 0.0316 µM
[3]
  IC50: < 0.0316 µM
[4]
  IC50: < 0.0316 µM
[5]
  IC50: < 0.0316 µM
[6]
  IC50: < 0.0316 µM
[7]
  viability, T/C: 43.9%
[8]
  viability, T/C: 32.6%
[9]
  viability, T/C: 29.8%
[10]
  viability, T/C: 25.8%
[11]
  viability, T/C: 18.7%
[12]
  viability, T/C: 14.7%
[13]
  viability, T/C: 42.2%
[14]
  viability, T/C: 37.7%
[15]
  viability, T/C: 30.2%
[16]
  viability, T/C: 22.6%
[17]
  viability, T/C: 17.3%
[18]
  viability, T/C: 14.9%
[19]
  viability, T/C: 38.8%
[20]
  viability, T/C: 38.2%
[21]
  viability, T/C: 30.6%
[22]
  viability, T/C: 24%
[23]
  viability, T/C: 17.5%
[24]
  viability, T/C: 10.9%
[25]
  viability, T/C: 36.9%
[26]
  viability, T/C: 36.6%
[27]
  viability, T/C: 29.1%
[28]
  viability, T/C: 22.2%
[29]
  viability, T/C: 15.4%
[30]
  viability, T/C: 11.1%
[31]
  viability, T/C: 33.6%
[32]
  viability, T/C: 29.1%
[33]
  viability, T/C: 25%
[34]
  viability, T/C: 20.8%
[35]
  viability, T/C: 13.3%
[36]
  viability, T/C: 9.84%
[37]
  viability, T/C: 28.5%
[38]
  viability, T/C: 24.7%
[39]
  viability, T/C: 23.4%
[40]
  viability, T/C: 18.4%
[41]
  viability, T/C: 14.4%
[42]
  viability, T/C: 8.93%

## Cc1[nH]c2ccc(F)cc2c1-c1nc2c3cccnc3c3ncccc3c2[nH]1
Compound 0.0316 µM
  viability, T/C: 104% [middle of 12 runs]
Compound 0.1 µM
  viability, T/C: 102% [middle of 12 runs]
Compound 0.316 µM
  viability, T/C: 99.1% [middle of 12 runs]
Compound 1 µM
  viability, T/C: 92.6% [middle of 12 runs]
Compound 3.16 µM
  viability, T/C: 73% [middle of 12 runs]
Compound 10 µM
  viability, T/C: 72.2% [middle of 12 runs]
Compound alone, run of 03/18/2024
  IC50: > 10 µM
Compound alone, run of 03/26/2024
  IC50: > 10 µM

## COc1ccc([C@@H](O)c2cc(-c3ncnc4cc(N5CCOCC5)ccc34)c(F)cc2Cl)nn1 + Cc1[nH]c2ccc(F)cc2c1-c1nc2c3cccnc3c3ncccc3c2[nH]1
[1]
  IC50: 4.91 µM
[2]
  IC50: 3.71 µM
[3]
  IC50: 2.91 µM
[4]
  IC50: 3.15 µM
[5]
  IC50: 1.88 µM
[6]
  IC50: 1.41 µM
[7]
  viability, T/C: 107%
[8]
  viability, T/C: 91%
[9]
  viability, T/C: 82.9%
[10]
  viability, T/C: 72.5%
[11]
  viability, T/C: 58%
[12]
  viability, T/C: 38.5%
[13]
  viability, T/C: 96.8%
[14]
  viability, T/C: 99.8%
[15]
  viability, T/C: 87.5%
[16]
  viability, T/C: 66.5%
[17]
  viability, T/C: 54.8%
[18]
  viability, T/C: 39.7%
[19]
  viability, T/C: 89.5%
[20]
  viability, T/C: 96.8%
[21]
  viability, T/C: 88.9%
[22]
  viability, T/C: 69.2%
[23]
  viability, T/C: 50.2%
[24]
  viability, T/C: 35.1%
[25]
  viability, T/C: 83.8%
[26]
  viability, T/C: 90.5%
[27]
  viability, T/C: 85.4%
[28]
  viability, T/C: 69.9%
[29]
  viability, T/C: 51.1%
[30]
  viability, T/C: 33.9%
[31]
  viability, T/C: 71.3%
[32]
  viability, T/C: 68.3%
[33]
  viability, T/C: 63.2%
[34]
  viability, T/C: 56.8%
[35]
  viability, T/C: 44.7%
[36]
  viability, T/C: 29.7%
[37]
  viability, T/C: 70.3%
[38]
  viability, T/C: 69.3%
[39]
  viability, T/C: 70.6%
[40]
  viability, T/C: 51.3%
[41]
  viability, T/C: 42.3%
[42]
  viability, T/C: 31.6%

## CC(C)(O)C1CCC(Nc2ccc3ncc(-c4cccc(C(F)(F)F)c4)n3n2)CC1 (stereo unspecified) + Cc1[nH]c2ccc(F)cc2c1-c1nc2c3cccnc3c3ncccc3c2[nH]1
[1]
  IC50: 1.97 µM
[2]
  IC50: 2.01 µM
[3]
  IC50: 1.78 µM
[4]
  IC50: 1.91 µM
[5]
  IC50: 0.947 µM
[6]
  IC50: 1.07 µM
[7]
  viability, T/C: 108%
[8]
  viability, T/C: 103%
[9]
  viability, T/C: 112%
[10]
  viability, T/C: 75.2%
[11]
  viability, T/C: 32.2%
[12]
  viability, T/C: 32.6%
[13]
  viability, T/C: 98.7%
[14]
  viability, T/C: 103%
[15]
  viability, T/C: 101%
[16]
  viability, T/C: 79.7%
[17]
  viability, T/C: 28.9%
[18]
  viability, T/C: 32.5%
[19]
  viability, T/C: 95.5%
[20]
  viability, T/C: 99.1%
[21]
  viability, T/C: 90.5%
[22]
  viability, T/C: 70.2%
[23]
  viability, T/C: 27.5%
[24]
  viability, T/C: 32.6%
[25]
  viability, T/C: 89.6%
[26]
  viability, T/C: 95.6%
[27]
  viability, T/C: 86.8%
[28]
  viability, T/C: 74.2%
[29]
  viability, T/C: 31%
[30]
  viability, T/C: 27%
[31]
  viability, T/C: 72.6%
[32]
  viability, T/C: 75.5%
[33]
  viability, T/C: 69.9%
[34]
  viability, T/C: 49.3%
[35]
  viability, T/C: 27.4%
[36]
  viability, T/C: 26.1%
[37]
  viability, T/C: 65.2%
[38]
  viability, T/C: 69.8%
[39]
  viability, T/C: 62.6%
[40]
  viability, T/C: 52.1%
[41]
  viability, T/C: 24.1%
[42]
  viability, T/C: 21.5%

## O=c1[nH]cc(F)c(=O)[nH]1
Compound 0.0316 µM
  viability, T/C: 103% (2×) and 98.4%
Compound 0.1 µM
  viability, T/C: 90.1% and 99.8% and 94.7%
Compound 0.316 µM
  viability, T/C: 91.3% and 105% and 101%
Compound 1 µM
  viability, T/C: 95.9% and 91.8% and 94.2%
Compound 3.16 µM
  viability, T/C: 89.3% and 98.9% and 91.8%
Compound 10 µM
  viability, T/C: 77.6% and 72% and 67.4%
Curve of compound
  IC50: > 10 µM
